{"source": "patent US7544703B2", "about": "“Cyclic compound having 4-pyridylalkylthio group having substituted or unsubstituted amino group introduced therein” (Santen Pharmaceutical Co., Ltd., priority 2004, dated 2009)", "key": {"[1]": {"system": "HUVEC (normal human umbilical vein endothelial cells)", "assay": "VEGF-induced HUVEC proliferation: cell proliferation inhibitory action test;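 note: each well holds 100 µL cell suspension before compound addition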", "type": "cell-based", "details": "72 h, 5 μL of 20 μg/mL test compound solution per well, WST-8 absorbance at 450 nm three days after VEGF addition, read-out: Cell proliferation inhibition rate (%)", "procedure": "A cell proliferation inhibitory action test of the compounds of the present invention was performed using a VEGF-induced HUVEC proliferation evaluation system (HUVEC stands for normal human umbilical vein endothelial cells), which is one of the widely-used methods of evaluating in vitro angiogenesis inhibitory effects of drugs. As one of the widely-used methods of evaluating angiogenesis inhibitory effects of drugs, a cell proliferation inhibitory action test using a VEGF-induced HUVEC proliferation reaction evaluation system has been reported in Cancer Res., 59, 99-106 (1999). According to the method described in the above-mentioned document, a cell proliferation inhibitory action test of the compounds of the present invention was performed, the cell proliferation inhibition rate was calculated, and the angiogenesis inhibitory effect of each of the compounds of the present invention was evaluated using the obtained rate as an index. Each test compound was dissolved in dimethyl sulfoxide (hereinafter abbreviated as DMSO), and the obtained solution was diluted with a commercially available phosphoric acid buffer solution (hereinafter abbreviated as PBS), whereby a 20 μg/mL test compound solution was prepared. HUVEC was suspended in a 0.5% fetal bovine serum (hereinafter abbreviated as FBS)-containing F12K medium, whereby a 2×10^4 cells/mL HUVEC suspension was prepared. VEGF was dissolved in 0.1% bovine serum albumin-containing PBS, and the obtained solution was diluted with the 0.5% FBS-containing F12K medium, whereby a 400 ng/mL VEGF solution was prepared. • 1) The HUVEC suspension was inoculated in an amount of 100 μL into each well of a 96-well plate coated with type I collagen (2×10^3 cells per well). • 2) One day after the inoculation, the test compound solution was added in an amount of 5 μL per well. • 3) One hour after the addition of the test compound solution, the VEGF solution was added in an amount of 5 μL per well. • 4) Three days after the addition of the VEGF solution, WST-8 assay kit (Dojin Chemical Co., Ltd.) was added in an amount of 10 μL per well. • 5) After 3 hours, the above-mentioned plate was attached to an absorptiometer (Multilabel Counter ARVO), and an absorbance at 450 nm of each well suspension (hereinafter referred to as test compound suspension) was measured. • 6) A test was carried out in the same manner as in the above 1) to 5) except that 1.0% DMSO was used instead of the test compound solution. The result was used as a control. Incubation was carried out under conditions of 37° C., 5% carbon dioxide and […] in an incubator throughout the above-mentioned test steps. The cell proliferation inhibition rate (%), which was used as an index of an angiogenesis inhibitory effect, was calculated according to the following calculation equation. Cell proliferation inhibition rate (%)=100−{(Absorbance of test compound suspension−A)/(absorbance of control−A)}×100 (Calculation Equation) A: Absorbance of only cell suspension (cell+medium) (Test Results and Discussion)"}, "B16 cells": {"system": "B16 cells", "assay": "Tumor growth inhibitory action test using cancer models in mice (B16 cells)", "type": "in vivo", "details": "C57BL/6N mouse, B16 cells intradermal; 100 mg/kg/day oral once a day, day 0 to day 10; average of 9 mice per group; read-out: Tumor tissue weight inhibition rate (%)", "procedure": "A tumor growth inhibitory action test of the compounds of the present invention was performed using a tumor growth model in mice, which is one of the widely-used methods of evaluating in vivo anticancer effects of drugs.\nAs one of the widely-used methods of evaluating anticancer effects of drugs, a tumor growth inhibitory action test using cancer models in mice has been reported in Cancer Res., 59, 5209-5218 (1999). According to the method described in the above-mentioned document, a tumor growth inhibitory action test of the compounds of the present invention was performed, the tumor tissue weight inhibition rate was calculated, and the anticancer effect of each of the compounds of the present invention was evaluated using the obtained rate as an index.\nA 1% aqueous methyl cellulose solution was added to each test compound to suspend it with a sonicator, whereby a 10 mg/mL test compound suspension was prepared.\nPhysiological saline was added to B16 cells, whereby a 3.3×10^7 cells/mL B16 cell suspension was prepared.\n• 1) The back of each mouse (female, 6 weeks of age, C57BL/6N mouse) was depilated using a depilatory under Nembutal anesthesia. • 2) Several days after the depilation, the B16 cell suspension (300 μL) was injected intradermally into the back of the mouse under Nembutal anesthesia. • 3) From the B16 cell injection day (i.e. on day 0) to day 10, the test compound suspension (100 mg/kg/day) was orally administered once a day consecutively. • 4) Ten days after the injection of the cells, the mouse was euthanized with CO2 gas. • 5) A tumor tissue was enucleated from the mouse, and the weight of the tumor tissue was measured with an electronic balance. • 6) A test was performed in the same manner as in 1) to 5) except that the 1% aqueous methyl cellulose solution was used instead of the test compound suspension, and the result was used as a control. (Calculation of Tumor Tissue Weight Inhibition Rate)\nA tumor tissue weight inhibition rate (the average of 9 mice per group), which was used as an index of anticancer effect, was calculated according to the following calculation equation. Tumor tissue weight inhibition rate (%)=100−(Mx/Mo)×100 (Calculation Equation) Mo: Tumor tissue weight of control group Mx: Tumor tissue weight of test compound solution administration group (Test Results and Discussion)"}}, "note": "Structures can show the parent of a compound that is named as a salt.", "data": [{"smiles": "CCC(=O)Nc1cc(CSc2ncccc2C(=O)Nc2cc(C)cc(C)c2)ccn1", "note": "[Compound 4-2, N-(3,5-Dimethylphenyl)-2-(2-propionylaminopyridin-4-ylmethylthio)pyridine-3-carboxamide]", "values": [{"measurement": "inhibition at 20 µg/mL (stock)", "setting": "[1]", "value": 100, "unit": "%"}, {"measurement": "inhibition in vivo at 100 mg/kg/day", "setting": "B16 cells", "value": 51, "unit": "%"}]}, {"smiles": "CC(C)c1cccc(NC(=O)c2cccnc2SCc2ccnc(N)c2)c1", "note": "[Compound 3-2, 2-(2-Aminopyridin-4-ylmethylthio)-N-(3-isopropylphenyl)pyridine-3-carboxamide monohydrochloride]", "values": [{"measurement": "inhibition at 20 µg/mL (stock)", "setting": "[1]", "value": 97, "unit": "%"}, {"measurement": "inhibition in vivo at 100 mg/kg/day", "setting": "B16 cells", "value": 61, "unit": "%"}]}, {"smiles": "CC(=O)Nc1cc(CSc2ccccc2C(=O)Nc2cc(C)cc(C)c2)ccn1", "note": "[Compound 4-43, 2-(2-Acetylaminopyridin-4-ylmethylthio)-N-(3,5-dimethylphenyl)benzamide]", "values": [{"measurement": "inhibition in vivo at 100 mg/kg/day", "setting": "B16 cells", "value": 47, "unit": "%"}]}, {"smiles": "Cc1cc(C)cc(NC(=O)c2ccccc2SCc2ccnc(N)c2)c1", "note": "[Compound 3-20, 2-(2-Aminopyridin-4-ylmethylthio)-N-(3,5-dimethylphenyl)benzamide monohydrochloride]", "values": [{"measurement": "inhibition at 20 µg/mL (stock)", "setting": "[1]", "value": 100, "unit": "%"}, {"measurement": "inhibition in vivo at 100 mg/kg/day", "setting": "B16 cells", "value": 42, "unit": "%"}]}, {"smiles": "CC(=O)Nc1cc(CSc2ncccc2C(=O)Nc2ccc(OC(F)(F)F)c(Cl)c2)ccn1", "note": "[Compound 4-14, 2-(2-Acetylaminopyridin-4-ylmethylthio)-N-(3-chloro-4-trifluoromethoxyphenyl)pyridine-3-carboxamide]", "values": [{"measurement": "inhibition in vivo at 100 mg/kg/day", "setting": "B16 cells", "value": 44, "unit": "%"}]}, {"smiles": "CC(=O)Nc1cc(CSc2ncccc2C(=O)Nc2cccc(Cl)c2)ccn1", "note": "[Compound 4-16, 2-(2-Acetylaminopyridin-4-ylmethylthio)-N-(3-chlorophenyl)pyridine-3-carboxamide]", "values": [{"measurement": "inhibition in vivo at 100 mg/kg/day", "setting": "B16 cells", "value": 74, "unit": "%"}]}, {"smiles": "CC(=O)Nc1cc(CSc2ccsc2C(=O)Nc2cc(C)cc(C)c2)ccn1", "note": "[Compound 4-56, 3-(2-Acetylaminopyridin-4-ylmethylthio)-N-(3,5-dimethylphenyl)thiophene-2-carboxamide]", "values": [{"measurement": "inhibition at 20 µg/mL (stock)", "setting": "[1]", "value": 99, "unit": "%"}, {"measurement": "inhibition in vivo at 100 mg/kg/day", "setting": "B16 cells", "value": 42, "unit": "%"}]}, {"smiles": "Cc1cc(C)cc(NC(=O)c2cccnc2SCc2ccnc(N3CCCCC3)c2)c1", "note": "[Compound 1-5, N-(3,5-Dimethylphenyl)-2-[2-(piperidin-1-yl)pyridin-4-ylmethylthio]pyridine-3-carboxamide]", "values": [{"measurement": "inhibition at 20 µg/mL (stock)", "setting": "[1]", "value": 90, "unit": "%"}]}, {"smiles": "Nc1cc(CSc2ncccc2C(=O)Nc2cc3ccccc3cn2)ccn1", "note": "[Compound 3-13, 2-(2-Aminopyridin-4-ylmethylthio)-N-(isoquinolin-3-yl)pyridine-3-carboxamide]", "values": [{"measurement": "inhibition at 20 µg/mL (stock)", "setting": "[1]", "value": 100, "unit": "%"}]}, {"smiles": "CC(=O)Nc1cc(CSc2ccsc2C(=O)Nc2ccc(Cl)cc2)ccn1", "note": "[Compound 4-57, 3-(2-Acetylaminopyridin-4-ylmethylthio)-N-(4-chlorophenyl)thiophene-2-carboxamide]", "values": [{"measurement": "inhibition at 20 µg/mL (stock)", "setting": "[1]", "value": 100, "unit": "%"}]}, {"smiles": "Cc1cc(C)cc(NC(=O)c2cccnc2SCc2ccnc(NC(=O)C(F)(F)F)c2)c1", "note": "[Compound 4-3, N-(3,5-Dimethylphenyl)-2-(2-trifluoroacetylaminopyridin-4-ylmethylthio)pyridine-3-carboxamide]", "values": [{"measurement": "inhibition at 20 µg/mL (stock)", "setting": "[1]", "value": 100, "unit": "%"}]}, {"smiles": "CCCNC(=O)Nc1cc(CSc2ncccc2C(=O)Nc2cc(C)cc(C)c2)ccn1", "note": "[Compound 5-1, N-(3,5-Dimethylphenyl)-2-[2-(N′-n-propylureido)pyridin-4-ylmethylthio]pyridine-3-carboxamide]", "values": [{"measurement": "inhibition at 20 µg/mL (stock)", "setting": "[1]", "value": 100, "unit": "%"}]}, {"smiles": "Nc1cc(CSc2ccccc2C(=O)Nc2ccc(Cl)cc2)ccn1", "note": "[Compound 3-21, 2-(2-Aminopyridin-4-ylmethylthio)-N-(4-chlorophenyl)benzamide monohydrochloride]", "values": [{"measurement": "inhibition at 20 µg/mL (stock)", "setting": "[1]", "value": 100, "unit": "%"}]}, {"smiles": "Cc1cc(C)cc(NC(=O)c2cccnc2SCc2ccnc(N(C)C(=O)OC(C)(C)C)c2)c1", "note": "[Compound 2-7, 2-[2-(N-tert-Butoxycarbonyl-N-methylamino)pyridin-4-ylmethylthio]-N-(3,5-dimethylphenyl)pyridine-3-carboxamide]", "values": [{"measurement": "inhibition at 20 µg/mL (stock)", "setting": "[1]", "value": 52, "unit": "%"}]}, {"smiles": "CNC(=O)Nc1cc(CSc2ncccc2C(=O)Nc2ccc(OC(F)(F)F)cc2)ccn1", "note": "[Compound 9-2, 2-[2-(N′-Methylureido)pyridin-4-ylmethylthio]-N-(4-trifluoromethoxyphenyl)pyridine-3-carboxamide]", "values": [{"measurement": "inhibition at 20 µg/mL (stock)", "setting": "[1]", "value": 100, "unit": "%"}]}, {"smiles": "Cc1cc(C)cc(NC(=O)c2cccnc2SCc2ccnc(Nc3ncc(C#N)s3)c2)c1", "note": "[Compound 2-24, 2-[2-(5-Cyanothiazol-2-ylamino)pyridin-4-ylmethylthio]-N-(3,5-dimethylphenyl)pyridine-3-carboxamide]", "values": [{"measurement": "inhibition at 20 µg/mL (stock)", "setting": "[1]", "value": 88, "unit": "%"}]}, {"smiles": "Cc1cc(C)cc(NC(=O)c2cccnc2SCc2ccnc(N3CCN(C)CC3)c2)c1", "note": "[Compound 1-1, N-(3,5-Dimethylphenyl)-2-[2-(4-methylpiperazin-1-yl)pyridin-4-ylmethylthio]pyridine-3-carboxamide]", "values": [{"measurement": "inhibition at 20 µg/mL (stock)", "setting": "[1]", "value": 97, "unit": "%"}]}, {"smiles": "Cc1cc(C)cc(NC(=O)c2cccnc2SCc2ccnc(NC(=O)Nc3ccc(Cl)cc3)c2)c1", "note": "[Compound 5-3, 2-[2-(N′-4-Chlorophenylureido)pyridin-4-ylmethylthio]-N-(3,5-dimethylphenyl)pyridine-3-carboxamide]", "values": [{"measurement": "inhibition at 20 µg/mL (stock)", "setting": "[1]", "value": 100, "unit": "%"}]}, {"smiles": "Cc1cc(C)cc(NC(=O)c2cccnc2SCc2ccnc(Nc3ccccc3)c2)c1", "note": "[Compound 8-1, N-(3,5-Dimethylphenyl)-2-(2-phenylaminopyridin-4-ylmethylthio)pyridine-3-carboxamide]", "values": [{"measurement": "inhibition at 20 µg/mL (stock)", "setting": "[1]", "value": 100, "unit": "%"}]}, {"smiles": "CNc1cc(CSc2ncccc2C(=O)Nc2ccc3c(c2)CCC3)ccn1", "note": "[Compound 3-7, N-(Indan-5-yl)-2-(2-methylaminopyridin-4-ylmethylthio)pyridine-3-carboxamide monohydrochloride]", "values": [{"measurement": "inhibition at 20 µg/mL (stock)", "setting": "[1]", "value": 96, "unit": "%"}]}, {"smiles": "Cc1cc(C)cc(NC(=O)c2cccnc2SCc2ccnc(NS(=O)(=O)C(F)(F)F)c2)c1", "note": "[Compound 4-6, N-(3,5-Dimethylphenyl)-2-(2-trifluoromethanesulfonylaminopyridin-4-ylmethylthio)pyridine-3-carboxamide]", "values": [{"measurement": "inhibition at 20 µg/mL (stock)", "setting": "[1]", "value": 100, "unit": "%"}]}, {"smiles": "Cc1cc(C)cc(NC(=O)c2cccnc2SCc2ccnc(N3CCOCC3)c2)c1", "note": "[Compound 1-4, N-(3,5-Dimethylphenyl)-2-(2-morpholinopyridin-4-ylmethylthio)pyridine-3-carboxamide]", "values": [{"measurement": "inhibition at 20 µg/mL (stock)", "setting": "[1]", "value": 100, "unit": "%"}, {"measurement": "inhibition in vivo at 100 mg/kg/day", "setting": "B16 cells", "value": 68, "unit": "%"}]}]}
